Assay results published in ChEMBL document CHEMBL1201862, “PubChem BioAssay data set” (2004).
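Compound exposure: 48 hours, 5 concentrations, 96-well plates. GI50 = concentration required for 50% inhibition of growth.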 Calls of active or inactive are those of the source. No stated cut-off is given here; in the data, active = GI50 up to about 1.1 µM and inactive = higher.

Assays:
Test in all cases: growth of human tumour cells (NCI), 48 h
PC-3 = test system: PC-3
SF-295 = test system: SF-295
RPMI-8226 = test system: RPMI-8226
A549 = test system: A549
UACC-62 = test system: UACC-62
MDA-MB-435 = test system: MDA-MB-435
A498 = test system: A498
UO-31 = test system: UO-31
T47D = test system: T47D
HOP-92 = test system: HOP-92
MDA-MB-231 = test system: MDA-MB-231
NCI-H460 = test system: NCI-H460
CAKI-1 = test system: CAKI-1
MCF7 = test system: MCF7
SNB-19 = test system: SNB-19
SK-MEL-2 = test system: SK-MEL-2
NCI/ADR-RES = test system: NCI/ADR-RES
SK-OV-3 = test system: SK-OV-3
KM12 = test system: KM12
M14 = test system: M14
HCT-15 = test system: HCT-15
MOLT-4 = test system: MOLT-4
NCI-H226 = test system: NCI-H226
OVCAR-8 = test system: OVCAR-8
HCT-116 = test system: HCT-116
SNB-75 = test system: SNB-75
BT-549 = test system: BT-549
K562 = test system: K562
COLO 205 = test system: COLO 205
UACC-257 = test system: UACC-257
IGROV-1 = test system: IGROV-1
OVCAR-5 = test system: OVCAR-5
LOX IMVI = test system: LOX IMVI
SK-MEL-5 = test system: SK-MEL-5
HOP-62 = test system: HOP-62
SF-539 = test system: SF-539
ACHN = test system: ACHN
OVCAR-3 = test system: OVCAR-3
Malme-3M = test system: Malme-3M
RXF 393 = test system: RXF 393
SF-268 = test system: SF-268
786-0 = test system: 786-0
SK-MEL-28 = test system: SK-MEL-28
HCC 2998 = test system: HCC 2998
U-251 = test system: U-251
OVCAR-4 = test system: OVCAR-4
EKVX = test system: EKVX
NCI-H522 = test system: NCI-H522
HL-60 = test system: HL-60
SW-620 = test system: SW-620
DU-145 = test system: DU-145
SN12C = test system: SN12C
MDA-N = test system: MDA-N
SR = test system: SR
NCI-H23 = test system: NCI-H23
CCRF-CEM = test system: CCRF-CEM
HT-29 = test system: HT-29
TK-10 = test system: TK-10
Hs-578T = test system: Hs-578T

Cc1cccc(CP(Cc2cccc(C)c2)CC2(Cp3c4ccccc4c4ccccc43)COC2)c1
GI50 (PC-3): 0.935 µM (active)
GI50 (SF-295): 2.18 µM (inactive)
GI50 (RPMI-8226): 1.02 µM (active)
GI50 (A549): 0.206 µM (active)
GI50 (UACC-62): 11.7 µM (inactive)
GI50 (MDA-MB-435): 5.71 µM (inactive)
GI50 (A498): 7.41 µM (inactive)
GI50 (UO-31): 16.3 µM (inactive)
GI50 (T47D): 1.73 µM (inactive)
GI50 (HOP-92): 1.99 µM (inactive)
GI50 (MDA-MB-231): 1.3 µM (inactive)
GI50 (NCI-H460): 1.63 µM (inactive)
GI50 (CAKI-1): 9.75 µM (inactive)
GI50 (MCF7): 3.15 µM (inactive)
GI50 (SNB-19): 5.96 µM (inactive)
GI50 (SK-MEL-2): 7.23 µM (inactive)
GI50 (NCI/ADR-RES): 53.7 µM (inactive)
GI50 (SK-OV-3): > 100 µM (inactive)
GI50 (KM12): 2.51 µM (inactive)
GI50 (M14): 3.97 µM (inactive)
GI50 (HCT-15): 31 µM
GI50 (MOLT-4): 0.662 µM (active)
GI50 (NCI-H226): 4.11 µM (inactive)
GI50 (OVCAR-8): 1.78 µM (inactive)
GI50 (HCT-116): 0.252 µM (active)
GI50 (SNB-75): 0.501 µM (active)
GI50 (BT-549): 3.96 µM (inactive)
GI50 (K562): 1.33 µM (inactive)
GI50 (COLO 205): 0.249 µM (active)
GI50 (UACC-257): 8.97 µM (inactive)
GI50 (IGROV-1): 2.3 µM (inactive)
GI50 (OVCAR-5): > 100 µM (inactive)
GI50 (LOX IMVI): 1.42 µM (inactive)
GI50 (SK-MEL-5): 2.55 µM (inactive)
GI50 (HOP-62): 66.7 µM (inactive)
GI50 (SF-539): 12.1 µM (inactive)
GI50 (ACHN): 4.71 µM (inactive)
GI50 (OVCAR-3): 8.43 µM (inactive)
GI50 (Malme-3M): 5.13 µM (inactive)
GI50 (RXF 393): > 20.3 µM (inactive)
GI50 (SF-268): 3.79 µM (inactive)
GI50 (786-0): 1.53 µM (inactive)
GI50 (SK-MEL-28): 13 µM (inactive)
GI50 (HCC 2998): 12.3 µM (inactive)
GI50 (U-251): 0.47 µM (active)
GI50 (OVCAR-4): 13.3 µM (inactive)
GI50 (EKVX): 14.1 µM (inactive)
GI50 (NCI-H522): 1.18 µM (inactive)
GI50 (HL-60): 0.332 µM (active)
GI50 (SW-620): 10.3 µM (inactive)
GI50 (DU-145): 4.71 µM (inactive)
GI50 (SN12C): 4.41 µM (inactive)
GI50 (MDA-N): 6.32 µM (inactive)
GI50 (SR): 1.15 µM (inactive)
GI50 (NCI-H23): 11.5 µM (inactive)
GI50 (CCRF-CEM): 0.406 µM (active)
GI50 (HT-29): 0.485 µM (active)

CC(=O)c1c(O)ccc2c1c1c(n2C)C(=O)c2ccccc2C1=O
GI50 (SF-295): 6.92 µM (inactive)
GI50 (RPMI-8226): 1.46 µM (inactive)
GI50 (A549): 5.66 µM (inactive)
GI50 (A498): 2.84 µM (inactive)
GI50 (T47D): 1.45 µM (inactive)
GI50 (MDA-MB-231): 2.52 µM (inactive)
GI50 (NCI-H460): 3.21 µM (inactive)
GI50 (CAKI-1): 5.24 µM (inactive)
GI50 (MCF7): 1.69 µM (inactive)
GI50 (SNB-19): 7.28 µM (inactive)
GI50 (SK-MEL-2): > 100 µM (inactive)
GI50 (TK-10): 3.47 µM (inactive)
GI50 (SK-OV-3): 2.84 µM (inactive)
GI50 (Hs-578T): 2.82 µM (inactive)
GI50 (HCT-15): > 100 µM
GI50 (MOLT-4): 4.42 µM (inactive)
GI50 (OVCAR-8): 5.3 µM (inactive)
GI50 (HCT-116): 3.01 µM (inactive)
GI50 (SNB-75): 2.32 µM (inactive)
GI50 (BT-549): > 100 µM (inactive)
GI50 (K562): > 100 µM (inactive)
GI50 (COLO 205): > 100 µM (inactive)
GI50 (UACC-257): > 100 µM (inactive)
GI50 (IGROV-1): 1.82 µM (inactive)
GI50 (OVCAR-5): > 100 µM (inactive)
GI50 (LOX IMVI): 3.24 µM (inactive)
GI50 (SK-MEL-5): 3.29 µM (inactive)
GI50 (HOP-62): 6.53 µM (inactive)
GI50 (SF-539): 3.08 µM (inactive)
GI50 (OVCAR-3): 1.81 µM (inactive)
GI50 (Malme-3M): 0.0128 µM (active)
GI50 (RXF 393): 3.84 µM (inactive)
GI50 (SF-268): 1.86 µM (inactive)
GI50 (786-0): 4.9 µM (inactive)
GI50 (SK-MEL-28): 2.99 µM (inactive)
GI50 (HCC 2998): 0.0114 µM (active)
GI50 (U-251): 4.63 µM (inactive)
GI50 (EKVX): 3.24 µM (inactive)
GI50 (HL-60): > 100 µM (inactive)
GI50 (DU-145): 3.21 µM (inactive)
GI50 (SR): 2.25 µM (inactive)
GI50 (CCRF-CEM): 3.69 µM (inactive)
GI50 (HT-29): > 100 µM (inactive)
